One may read the Ki as the dissociation constant of the complex between target and ligand, obtained from inhibition or displacement. As a reminder, the IC50 is the concentration that inhibits the measured activity by half.

The record followed here is patent US20240199635A1, “TETRAHYDROTHIENO PYRIDINE DERIVATIVES AS DDRS INHIBITORS” (CHIESI FARMACEUTICI S.P.A., priority 2021, published 2024).

Assay [1] addresses T1, DDR1 (Homo sapiens (Human), UniProt Q08345). Kind of assay: DDR1 binding assay (LanthaScreen Europium Kinase Binding assay). The settings on record: potency class, read-out: Ki DDR1. On the procedure: (§1) DDR1 and DDR2 binding assays were performed using Life Technologies LanthaScreen™ Europium Kinase Binding assay. The compounds were incubated with 5 nM DDR1 (Carna Biosciences) or 5 nM DDR2 (Life Technologies) for 1 hour at room temperature in white 384-well OptiPlate (PerkinElmer), containing 20 nM or 10 nM Kinase Tracer 178 respectively and 2 nM Europium labelled anti-GST antibody (Life Technologies) in assay buffer (50 mM HEPES pH 7.5, 10 mM MgCl2, 1 mM EGTA and 0.01% BRIJ35).
(§2) The ratio of fluorescence emission 665 nm/615 nm after excitation at 340 nm was obtained using the Tecan Spark 20M plate reader. IC50 values were determined in GraphPad Prism 7.0 software, using 4 parameter model: log(inhibitor) vs. response. IC50 values were converted in Ki using the Cheng-Prusoff equation (Ki=IC50/(1+[Tracer]/Kd).
In general terms: In TR-FRET formats the signal depends on donor and acceptor labels being close together.

The target in assay [2] is DDR2 (Homo sapiens (Human), UniProt Q16832). Kind of assay: DDR2 binding assay (LanthaScreen Europium Kinase Binding assay). The settings on record: potency class, read-out: Ki DDR2. How it is done:
as §1, §2

For assay [3], the target named is T1, DDR1. Put plainly: DDR1 cell based assay (PathHunter U2OS DDR1 assay). The settings on record: U2OS-DDR1 cells, Type II Collagen stimulation, potency class. How it is done:
The inhibition of DDR1 receptor activation by compounds was evaluated by PathHunter® U2OS DDR1 assay (Eurofins DiscoverX), according to the manufacturer's instructions. Briefly, U2OS-DDR1 cells were seeded in white 384-well plates at a density of 5000 cells/well and incubated for 2 hours at 37° C. and 5% CO2. Cells were then treated with compounds at different concentrations and incubated for 30 minutes, before stimulation with bovine Type II Collagen 20 μg/ml and incubation overnight at 37° C. and 5% CO2. PathHunter Detection Reagents were prepared according to the protocol provided by DiscoverX and 20 μl/well of this mix were added to each well. After incubating the plates for 1 hour at room temperature in the dark, luminescence signal was acquired with a plate reader. Raw data were normalized to vehicle control (0% for normalization) and positive control (100% for normalization; cells treated with 20 μg/ml collagen II) and IC50 parameters were calculated in GraphPad Prism 8.0 software, using sigmoidal dose-response curve fitting with variable slope.

Sequence of DDR2 (Q16832 22-855): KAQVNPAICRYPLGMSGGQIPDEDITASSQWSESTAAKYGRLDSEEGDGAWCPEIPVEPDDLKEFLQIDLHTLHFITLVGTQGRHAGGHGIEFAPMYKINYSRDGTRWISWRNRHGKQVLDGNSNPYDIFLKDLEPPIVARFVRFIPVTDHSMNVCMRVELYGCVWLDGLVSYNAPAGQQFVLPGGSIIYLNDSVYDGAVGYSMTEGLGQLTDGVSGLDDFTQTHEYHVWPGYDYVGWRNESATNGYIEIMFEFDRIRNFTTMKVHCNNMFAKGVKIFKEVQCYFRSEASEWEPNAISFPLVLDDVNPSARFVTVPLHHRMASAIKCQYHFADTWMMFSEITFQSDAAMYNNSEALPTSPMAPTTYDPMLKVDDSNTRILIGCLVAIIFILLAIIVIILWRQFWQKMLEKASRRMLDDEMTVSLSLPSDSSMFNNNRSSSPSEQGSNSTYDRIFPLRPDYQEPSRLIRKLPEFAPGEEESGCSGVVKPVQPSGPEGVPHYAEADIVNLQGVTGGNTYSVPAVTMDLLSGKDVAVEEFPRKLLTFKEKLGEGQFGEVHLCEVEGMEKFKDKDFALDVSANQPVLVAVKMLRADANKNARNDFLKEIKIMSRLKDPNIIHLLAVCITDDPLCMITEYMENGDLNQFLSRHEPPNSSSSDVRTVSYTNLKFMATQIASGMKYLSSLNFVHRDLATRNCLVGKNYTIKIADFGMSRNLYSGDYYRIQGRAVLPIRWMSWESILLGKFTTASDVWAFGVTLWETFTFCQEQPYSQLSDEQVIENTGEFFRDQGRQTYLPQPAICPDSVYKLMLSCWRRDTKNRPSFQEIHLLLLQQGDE
T1 sequence (Q08345 19-913): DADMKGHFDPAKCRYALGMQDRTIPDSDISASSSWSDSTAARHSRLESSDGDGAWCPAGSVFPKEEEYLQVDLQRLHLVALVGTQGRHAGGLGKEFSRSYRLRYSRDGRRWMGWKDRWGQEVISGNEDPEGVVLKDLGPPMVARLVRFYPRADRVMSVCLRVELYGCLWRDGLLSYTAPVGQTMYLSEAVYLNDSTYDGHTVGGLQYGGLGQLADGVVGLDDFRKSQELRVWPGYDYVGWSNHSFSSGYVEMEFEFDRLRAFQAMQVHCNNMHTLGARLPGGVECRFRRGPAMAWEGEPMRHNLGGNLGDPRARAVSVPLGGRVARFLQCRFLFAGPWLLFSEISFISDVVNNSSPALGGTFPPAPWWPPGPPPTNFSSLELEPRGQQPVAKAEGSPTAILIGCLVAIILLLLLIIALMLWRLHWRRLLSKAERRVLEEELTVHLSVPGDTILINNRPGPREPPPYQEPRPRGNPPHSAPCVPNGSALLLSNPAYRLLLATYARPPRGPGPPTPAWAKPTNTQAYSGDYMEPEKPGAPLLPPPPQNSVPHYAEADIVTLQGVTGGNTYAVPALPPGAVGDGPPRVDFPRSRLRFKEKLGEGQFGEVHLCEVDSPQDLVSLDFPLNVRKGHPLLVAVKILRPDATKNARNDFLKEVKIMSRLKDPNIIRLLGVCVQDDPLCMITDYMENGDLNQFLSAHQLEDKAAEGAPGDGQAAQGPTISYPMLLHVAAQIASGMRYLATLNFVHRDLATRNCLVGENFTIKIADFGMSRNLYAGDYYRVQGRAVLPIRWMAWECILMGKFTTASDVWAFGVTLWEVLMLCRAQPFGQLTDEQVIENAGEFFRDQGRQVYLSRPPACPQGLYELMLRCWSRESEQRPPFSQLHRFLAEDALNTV

Take `O=C(Nc1ccc(F)c(OC(F)(F)F)c1)c1csc2c1CCN(Cc1cncnc1)C2` [Example 10, N-(4-fluoro-3-(trifluoromethoxy)phenyl)-6-(pyrimidin-5-ylmethyl)-4,5,6,7-tetrahydrothieno[2,3-c]pyridine-3-carboxamide]: the Ki in assay [1] and in assay [2] was below 25 nM throughout. In assay [3], this compound gave an IC50 below 25 nM.

In the case of `CN1CCN(Cc2cc(NC(=O)c3csc4c3CCN(Cc3cncnc3)C4)cc(C(F)(F)F)c2)CC1` [Example 2, N-(3-((4-methylpiperazin-1-yl)methyl)-5-(trifluoromethyl)phenyl)-6-(pyrimidin-5-ylmethyl)-4,5,6,7-tetrahydrothieno[2,3-c]pyridine-3-carboxamide], the Ki lay within 25 to 50 nM in assay [1] and 50 to 80 nM in assay [2]. In assay [3], this compound showed a 50% inhibitory concentration (IC50) of 50 to 80 nM.

On to `CN(C)Cc1ccc(NC(=O)c2csc3c2CCN(Cc2cnc(N)nc2)C3)cc1C(F)(F)F` [Example 56, 6-((2-aminopyrimidin-5-yl)methyl)-N-(4-((dimethylamino)methyl)-3-(trifluoromethyl)phenyl)-4,5,6,7-tetrahydrothieno[2,3-c]pyridine-3-carboxamide], for which the Ki in assay [1] was below 25 nM; in assay [2], 25 to 50 nM. In assay [3], this compound showed an IC50 of 25 to 50 nM.

For the compound `Cc1cncc(CN2CCc3c(C(=O)Nc4cccc(C(F)(F)F)c4)csc3C2)c1` [Example 22, 6-((5-methylpyridin-3-yl)methyl)-N-(3-(trifluoromethyl)phenyl)-4,5,6,7-tetrahydrothieno[2,3-c]pyridine-3-carboxamide], the Ki in assay [1] and in assay [2] was below 25 nM in each case. The IC50 in assay [3] was 50 to 80 nM.

For `CN(C)[C@@H]1CCN(Cc2cc(NC(=O)c3csc4c3CCN(Cc3cncnc3C(C)(C)F)C4)cc(C(F)(F)F)c2)C1` [Example 51, (R)-N-(3-((3-(dimethylamino)pyrrolidin-1-yl)methyl)-5-(trifluoromethyl)phenyl)-6-((4-(2-fluoropropan-2-yl)pyrimidin-5-yl)methyl)-4,5,6,7-tetrahydrothieno[2,3-c]pyridine-3-carboxamide], the Ki in assay [1] is below 25 nM; in assay [2], 25 to 50 nM. Also, in assay [3], the IC50 was 50 to 80 nM.

As for `O=C(Nc1cc(F)cc(C(F)(F)F)c1)c1csc2c1CCN(Cc1cnc(NCCO)nc1)C2` [Example 44, N-(3-fluoro-5-(trifluoromethyl)phenyl)-6-((2-((2-hydroxyethyl)amino)pyrimidin-5-yl)methyl)-4,5,6,7-tetrahydrothieno[2,3-c]pyridine-3-carboxamide], the Ki in assay [1] and in assay [2] was below 25 nM in each case. Further, in assay [3], the IC50 is 25 to 50 nM.

As to `CN(C)[C@@H]1CCN(Cc2cc(NC(=O)c3csc4c3CCN(Cc3cncc(-c5cnn(C)c5)c3)C4)cc(C(F)(F)F)c2)C1` [Example 54, (R)-N-(3-((3-(dimethylamino)pyrrolidin-1-yl)methyl)-5-(trifluoromethyl)phenyl)-6-((5-(1-methyl-1H-pyrazol-4-yl)pyridin-3-yl)methyl)-4,5,6,7-tetrahydrothieno[2,3-c]pyridine-3-carboxamide], the Ki in assay [1] and in assay [2] was below 25 nM each time. Moreover, the IC50 in assay [3] was 25 to 50 nM.

Consider `COc1ncncc1CN1CCc2c(C(=O)Nc3cc(CN4CC[C@@H](N(C)C)C4)cc(C(F)(F)F)c3)csc2C1` [Example 52, (R)-N-(3-((3-(dimethylamino)pyrrolidin-1-yl)methyl)-5-(trifluoromethyl)phenyl)-6-((4-methoxypyrimidin-5-yl)methyl)-4,5,6,7-tetrahydrothieno[2,3-c]pyridine-3-carboxamide], for which the Ki in assay [1] and in assay [2] was below 25 nM each time. Also, the IC50 in assay [3] fell in the range of 50 to 80 nM.

For `O=C(Nc1ccc(F)c(C(F)(F)F)c1)c1csc2c1CCN(Cc1cncnc1)C2` [Example 8, N-(4-fluoro-3-(trifluoromethyl)phenyl)-6-(pyrimidin-5-ylmethyl)-4,5,6,7-tetrahydrothieno[2,3-c]pyridine-3-carboxamide], the Ki in assay [1] and in assay [2] was below 25 nM throughout. The same compound had an IC50 in assay [3] of 50 to 80 nM.

As to `CC(F)(F)c1cccc(NC(=O)c2csc3c2CCN(Cc2cncnc2)C3)c1` [Example 9, N-(3-(1,1-difluoroethyl)phenyl)-6-(pyrimidin-5-ylmethyl)-4,5,6,7-tetrahydrothieno[2,3-c]pyridine-3-carboxamide], the Ki in assay [1] and in assay [2] was below 25 nM throughout. Also, the IC50 in assay [3] lay in the range of 50 to 80 nM.

For `COc1cncc(CN2CCc3c(C(=O)Nc4cncc(C(F)(F)F)c4)csc3C2)c1` [Example 32, 6-((5-methoxypyridin-3-yl)methyl)-N-(5-(trifluoromethyl)pyridin-3-yl)-4,5,6,7-tetrahydrothieno[2,3-c]pyridine-3-carboxamide], the Ki in assay [1] and in assay [2] was below 25 nM each time. In assay [3], the IC50 is below 25 nM.

Turning to `CNc1ccc(CN2CCc3c(C(=O)Nc4cc(F)cc(C(F)(F)F)c4)csc3C2)cn1` [Example 48, N-[3-fluoro-5-(trifluoromethyl)phenyl]-6-[[6-(methylamino)-3-pyridyl]methyl]-5,7-dihydro-4H-thieno[2,3-c]pyridine-3-carboxamide], the Ki in assay [1] and in assay [2] was below 25 nM in each case. In assay [3], this compound yielded an IC50 below 25 nM.

On to `CNc1ncc(CN2CCc3c(C(=O)Nc4cc(F)cc(C(F)(F)F)c4)csc3C2)cn1` [Example 40, N-(3-fluoro-5-(trifluoromethyl)phenyl)-6-((2-(methylamino)pyrimidin-5-yl)methyl)-4,5,6,7-tetrahydrothieno[2,3-c]pyridine-3-carboxamide], for which the Ki in assay [1] and in assay [2] was below 25 nM throughout. Also, in assay [3], the IC50 is below 25 nM.

As for `Nc1ncc(CN2CCc3c(C(=O)Nc4cncc(C(F)(F)F)c4)csc3C2)cn1` [Example 35, 6-((2-aminopyrimidin-5-yl)methyl)-N-(5-(trifluoromethyl)pyridin-3-yl)-4,5,6,7-tetrahydrothieno[2,3-c]pyridine-3-carboxamide], the results for the inhibition constant (Ki) in assay [1] and in assay [2] were below 25 nM and 25 to 50 nM, respectively. The IC50 in assay [3] fell in the range of 50 to 80 nM.

For `Cc1nc(N)ncc1CN1CCc2c(C(=O)Nc3cc(F)cc(C(F)(F)F)c3)csc2C1` [Example 47, 6-((2-amino-4-methylpyrimidin-5-yl)methyl)-N-(3-fluoro-5-(trifluoromethyl)phenyl)-4,5,6,7-tetrahydrothieno[2,3-c]pyridine-3-carboxamide], the Ki in assay [1] and in assay [2] was below 25 nM throughout. Moreover, the IC50 in assay [3] fell in the range of 50 to 80 nM.

`O=C(Nc1cc(C(F)(F)F)ccc1F)c1csc2c1CCN(Cc1cncnc1)C2` [Example 11, N-(2-fluoro-5-(trifluoromethyl)phenyl)-6-(pyrimidin-5-ylmethyl)-4,5,6,7-tetrahydrothieno[2,3-c]pyridine-3-carboxamide]: the Ki in assay [1] and in assay [2] was below 25 nM throughout. In assay [3], this compound yielded an IC50 of 50 to 80 nM.

For `CC(C)(c1cc(NC(=O)c2csc3c2CCN(Cc2cnc(N)nc2)C3)no1)C(F)(F)F` [Example 62, 6-((2-aminopyrimidin-5-yl)methyl)-N-(5-(1,1,1-trifluoro-2-methylpropan-2-yl)isoxazol-3-yl)-4,5,6,7-tetrahydrothieno[2,3-c]pyridine-3-carboxamide], the inhibition constant Ki in assay [1] and in assay [2] was below 25 nM in each case. The compound further came in with an IC50 in assay [3] below 25 nM.

As for `N#Cc1cc(NC(=O)c2csc3c2CCN(Cc2cnc(N)nc2)C3)cc(C(F)(F)F)c1` [Example 59, 6-((2-aminopyrimidin-5-yl)methyl)-N-(3-cyano-5-(trifluoromethyl)phenyl)-4,5,6,7-tetrahydrothieno[2,3-c]pyridine-3-carboxamide], the Ki in assay [1] and in assay [2] was below 25 nM in each case. The same compound gave an IC50 in assay [3] below 25 nM.

In the case of `Cn1nc(C(C)(C)C)cc1NC(=O)c1csc2c1CCN(Cc1nccnc1N)C2` [Example 15, 6-((3-aminopyrazin-2-yl)methyl)-N-(3-(tert-butyl)-1-methyl-1H-pyrazol-5-yl)-4,5,6,7-tetrahydrothieno[2,3-c]pyridine-3-carboxamide], the Ki in assay [1] and in assay [2] was below 25 nM each time. For the same compound, the IC50 in assay [3] was 25 to 50 nM.

Turning to `CN1CCN(c2cncc(CN3CCc4c(C(=O)Nc5cccc(C(F)(F)F)c5)csc4C3)c2)CC1=O` [Example 29, 6-((5-(4-methyl-3-oxopiperazin-1-yl)pyridin-3-yl)methyl)-N-(3-(trifluoromethyl)phenyl)-4,5,6,7-tetrahydrothieno[2,3-c]pyridine-3-carboxamide], the Ki in assay [1] and in assay [2] was below 25 nM each time. Moreover, the concentration for half-maximal inhibition (IC50) in assay [3] lay in the range of 50 to 80 nM.
